Reference: US20260062387A1, “SALT-INDUCIBLE KINASE INHIBITOR COMPOUND AND PHARMACEUTICAL COMPOSITION INCLUDING THE SAME” (MITSUBISHI TANABE PHARMA CORPORATION, priority 2023, published 2026)

Experiments:
Type in all cases: biochemical
GST-tagged SIK1 = GST-tagged SIK1 (Homo sapiens (Human), UniProt P57059); assay: SIK1 inhibition test (ADP-Glo Max Assay); details: enzyme 20 nM, AMARA Peptide 200 μM, ATP 1 mM, 2 hours room temperature
Protocol: (§1) The compounds described in Examples above were used in the SIK1, SIK2, and SIK3 inhibition test.
(§2) The inhibitory activity of the compound for SIK1, SIK2, and SIK3 enzymes was assayed by measuring the amount of ADP, an enzyme reaction product, with ADP-Glo™ Max Assay (Promega). Enzymes, specifically, GST-tagged SIK1 (Carna Biosciences, Inc.), GST-tagged SIK2 (Carna Biosciences, Inc.), and GST-tagged SIK3 (SignalChem) were prepared in a reaction buffer (15 mM tris-hydrochloric acid buffer (pH 7.5), 0.001% Triton X-100, 0.01% BSA) so that the final concentration would be 20 nM, 3 nM, and 100 nM. Enzyme solutions were thus formed. In a reaction buffer, AMARA Peptide (SignalChem) as a substrate with a final concentration of 200 μM (SIK1, SIK2) or 100 μM (SIK3), ATP (Promega) with a final concentration of 1 mM, and magnesium chloride with a final concentration of 5 mM were prepared. Substrate solutions were thus formed. The enzyme solution, the substrate solution, and a DMSO solution of a concentration of the test compound were mixed together and reacted at room temperature for 2 hours. After the reaction, ADP-Glo™ Reagent (Promega) was added, and the reaction was performed at room temperature for 30 minutes. Subsequently, ADP-Glo™ Max Detection Reagent (Promega) was added, and the reaction was performed at room temperature for 30 minutes. The emission by the luciferase reaction was measured with PHERAstar FSX (BMG LABTECH).
(§3) The inhibitory ratio (%) was calculated by: % Inhibition={1−(intensity of sample−intensity of blank (no enzyme solution added))/(intensity of control (DMSO alone)−intensity of blank)}×100. The inhibitory concentration IC50 was calculated based on 16 data values obtained in the concentration response test.

GST-tagged SIK2 = GST-tagged SIK2 (Homo sapiens (Human), UniProt Q9H0K1); assay: SIK2 inhibition test (ADP-Glo Max Assay); details: enzyme 3 nM, AMARA Peptide 200 μM, ATP 1 mM, 2 hours room temperature
GST-tagged SIK2, sequence (Q9H0K1 whole entry): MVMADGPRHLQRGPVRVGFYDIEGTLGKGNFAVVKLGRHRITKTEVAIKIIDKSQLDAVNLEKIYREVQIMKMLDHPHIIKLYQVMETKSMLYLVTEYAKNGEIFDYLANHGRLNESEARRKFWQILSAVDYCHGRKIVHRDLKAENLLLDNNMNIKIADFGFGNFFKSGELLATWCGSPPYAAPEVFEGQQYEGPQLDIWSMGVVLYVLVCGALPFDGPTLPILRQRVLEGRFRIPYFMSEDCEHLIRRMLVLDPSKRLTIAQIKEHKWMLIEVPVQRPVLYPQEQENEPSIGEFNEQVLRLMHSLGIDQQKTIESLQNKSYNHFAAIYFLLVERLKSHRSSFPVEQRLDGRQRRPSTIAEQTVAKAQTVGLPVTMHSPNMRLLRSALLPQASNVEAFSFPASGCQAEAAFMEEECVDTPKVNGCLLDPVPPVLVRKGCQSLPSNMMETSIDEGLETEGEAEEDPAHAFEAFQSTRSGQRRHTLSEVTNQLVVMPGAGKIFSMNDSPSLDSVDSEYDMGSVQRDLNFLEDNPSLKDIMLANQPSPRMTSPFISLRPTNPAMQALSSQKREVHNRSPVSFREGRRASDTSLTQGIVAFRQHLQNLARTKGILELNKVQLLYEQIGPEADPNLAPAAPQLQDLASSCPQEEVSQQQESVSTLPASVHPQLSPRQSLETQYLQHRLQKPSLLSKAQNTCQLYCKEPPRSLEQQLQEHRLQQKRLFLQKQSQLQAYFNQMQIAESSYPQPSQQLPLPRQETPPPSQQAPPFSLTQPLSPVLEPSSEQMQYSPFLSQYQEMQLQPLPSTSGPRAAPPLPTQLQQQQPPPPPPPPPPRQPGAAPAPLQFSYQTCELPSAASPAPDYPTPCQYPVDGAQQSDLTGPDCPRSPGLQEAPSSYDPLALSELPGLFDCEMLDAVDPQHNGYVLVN
Protocol: as §1, §2, §3

GST-tagged SIK3 = GST-tagged SIK3 (Homo sapiens (Human), UniProt Q9Y2K2); assay: SIK3 inhibition test (ADP-Glo Max Assay); details: enzyme 100 nM, AMARA Peptide 100 μM, ATP 1 mM, 2 hours room temperature
GST-tagged SIK3, sequence (Q9Y2K2 whole entry): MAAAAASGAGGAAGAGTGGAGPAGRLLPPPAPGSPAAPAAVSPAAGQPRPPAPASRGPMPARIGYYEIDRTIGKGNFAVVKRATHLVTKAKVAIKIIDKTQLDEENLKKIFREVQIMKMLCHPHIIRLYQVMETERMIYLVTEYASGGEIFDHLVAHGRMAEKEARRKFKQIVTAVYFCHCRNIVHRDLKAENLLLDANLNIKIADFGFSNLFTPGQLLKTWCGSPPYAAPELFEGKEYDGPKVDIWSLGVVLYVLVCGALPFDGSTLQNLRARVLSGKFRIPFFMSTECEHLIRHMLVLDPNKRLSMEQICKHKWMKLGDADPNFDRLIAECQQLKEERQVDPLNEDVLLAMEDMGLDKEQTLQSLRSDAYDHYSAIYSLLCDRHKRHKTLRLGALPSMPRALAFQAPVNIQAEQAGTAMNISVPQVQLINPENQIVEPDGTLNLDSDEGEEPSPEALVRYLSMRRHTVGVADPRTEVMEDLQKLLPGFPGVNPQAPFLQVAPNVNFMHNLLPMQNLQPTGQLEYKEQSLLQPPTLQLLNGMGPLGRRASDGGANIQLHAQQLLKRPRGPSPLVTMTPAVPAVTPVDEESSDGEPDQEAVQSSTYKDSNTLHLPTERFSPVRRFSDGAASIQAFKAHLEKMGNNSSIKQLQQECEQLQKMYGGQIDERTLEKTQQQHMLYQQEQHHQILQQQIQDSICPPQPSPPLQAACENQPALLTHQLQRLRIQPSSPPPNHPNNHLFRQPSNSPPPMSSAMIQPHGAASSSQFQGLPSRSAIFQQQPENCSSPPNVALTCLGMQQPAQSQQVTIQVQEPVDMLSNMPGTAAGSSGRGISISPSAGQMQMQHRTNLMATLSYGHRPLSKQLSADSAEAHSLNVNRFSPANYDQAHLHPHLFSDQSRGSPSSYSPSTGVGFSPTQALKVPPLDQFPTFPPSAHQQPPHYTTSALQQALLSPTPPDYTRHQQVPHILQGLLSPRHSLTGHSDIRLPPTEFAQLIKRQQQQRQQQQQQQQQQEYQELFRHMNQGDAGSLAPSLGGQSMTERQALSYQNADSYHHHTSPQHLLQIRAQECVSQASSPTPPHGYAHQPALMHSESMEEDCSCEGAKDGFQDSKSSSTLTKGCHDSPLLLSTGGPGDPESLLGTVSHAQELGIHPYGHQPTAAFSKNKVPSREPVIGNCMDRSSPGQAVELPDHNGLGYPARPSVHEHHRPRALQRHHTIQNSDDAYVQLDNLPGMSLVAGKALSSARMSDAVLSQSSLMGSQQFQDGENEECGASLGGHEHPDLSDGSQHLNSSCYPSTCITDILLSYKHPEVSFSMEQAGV
Protocol: as §1, §2, §3

GST-tagged SIK1, sequence (P57059 whole entry): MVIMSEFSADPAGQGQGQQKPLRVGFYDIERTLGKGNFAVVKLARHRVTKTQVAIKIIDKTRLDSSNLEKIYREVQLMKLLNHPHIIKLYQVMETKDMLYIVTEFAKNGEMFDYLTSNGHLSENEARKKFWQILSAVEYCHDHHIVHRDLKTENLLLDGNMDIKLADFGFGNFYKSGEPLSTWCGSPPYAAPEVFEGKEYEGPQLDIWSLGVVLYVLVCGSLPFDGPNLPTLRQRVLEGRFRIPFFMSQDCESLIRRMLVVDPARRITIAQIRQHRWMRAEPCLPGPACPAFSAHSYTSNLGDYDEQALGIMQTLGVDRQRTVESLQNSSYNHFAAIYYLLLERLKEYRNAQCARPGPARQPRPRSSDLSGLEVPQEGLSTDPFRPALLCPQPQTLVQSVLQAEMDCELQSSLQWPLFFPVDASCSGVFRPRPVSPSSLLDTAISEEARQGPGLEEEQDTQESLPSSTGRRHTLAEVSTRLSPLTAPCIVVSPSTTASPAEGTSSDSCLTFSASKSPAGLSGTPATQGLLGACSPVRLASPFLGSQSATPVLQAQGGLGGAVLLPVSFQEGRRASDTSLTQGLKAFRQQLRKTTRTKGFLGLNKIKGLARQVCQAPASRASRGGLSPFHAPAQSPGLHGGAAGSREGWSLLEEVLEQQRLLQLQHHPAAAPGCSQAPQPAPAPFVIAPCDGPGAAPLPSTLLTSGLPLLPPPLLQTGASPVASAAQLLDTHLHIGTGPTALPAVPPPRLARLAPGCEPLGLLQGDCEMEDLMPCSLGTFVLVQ

IC50 (GST-tagged SIK1) [nM]	IC50 (GST-tagged SIK2) [nM]	IC50 (GST-tagged SIK3) [nM]	Compound
5	4.5	8.9	COc1cc(-c2c3c(C#N)cc(-c4cnn(CC5CC5)c4)cc3nn2C)cc(OC(F)F)c1C(=O)N[C@@H]1C[C@@H]1F [Example 32, 4-[4-cyano-6-[1-(cyclopropylmethyl)pyrazol-4-yl]-2-methylindazol-3-yl]-2-(difluoromethoxy)-N-[(1R, 2S)-2-fluorocyclopropyl]-6-methoxybenzamide]
9.5	4.8	1.1	COc1cc(-c2c3c(C(F)F)cc(-c4cnn(C[C@H]5C[C@@H](O)C5)c4)cc3nn2C)cc(OC(F)F)c1C(=O)N[C@@H]1CC1(F)F [Example 121, N-[(1R)-2,2-difluorocyclopropyl]-2-(difluoromethoxy)-4-[4-(difluoromethyl)-6-[1-[(cis-3-hydroxycyclobutyl)methyl]pyrazol-4-yl]-2-methylindazol-3-yl]-6-methoxybenzamide]
4.3	0.7	2.6	COc1cc(-c2c3c(OCC(F)F)cc(-c4cnn(C)c4)cc3nn2C)cc(OC(F)F)c1C(N)=O [Example 156, 4-[4-(2,2-difluoroethoxy)-2-methyl-6-(1-methylpyrazol-4-yl)indazol-3-yl]-2-(difluoromethoxy)-6-methoxybenzamide]
4.7	7.4	7.4	COc1cc(-c2c3c(C(F)F)cc(-c4cnn(CC(=O)N(C)C)c4)cc3nn2C)cc(OC(F)F)c1C(=O)N1CC(O)(C(F)F)C1 [Example 61, 2-[4-[3-[3-(difluoromethoxy)-4-[3-(difluoromethyl)-3-hydroxyazetidin-1-carbonyl]-5-methoxyphenyl]-4-(difluoromethyl)-2-methylindazol-6-yl]pyrazol-1-yl]-N,N-dimethylacetamide]
19.2	5.3	5.1	COc1cc(-c2c3c(C#N)cc(-c4cnn(CC(F)F)c4)cc3nn2C)cc(OC(F)F)c1C(N)=O [Example 102, 4-[4-cyano-6-[1-(2,2-difluoroethyl)pyrazol-4-yl]-2-methylindazol-3-yl]-2-(difluoromethoxy)-6-methoxybenzamide]
5.2	1.5	6.8	COc1cc(-c2cnn(C)c2)cc2nn(C)c(-c3cc(OC(F)F)c4c(c3)[C@@H](C)CNC4=O)c12 (single isomer, unassigned) [Example 165]
14	3.9	5	CCCn1cc(-c2cc(C#N)c3c(-c4cc(OC)c(C(N)=O)c(OC(F)F)c4)n(C)nc3c2)cn1 [Example 96, 4-[4-cyano-2-methyl-6-(1-propylpyrazol-4-yl)indazol-3-yl]-2-(difluoromethoxy)-6-methoxybenzamide]
3.9	2.6	0.7	COc1cc(-c2c3c(C(F)F)cc(-c4cnn(CCC(C)(C)O)c4)cc3nn2C)cc(OC(F)F)c1C(=O)N[C@@H]1CC1(F)F [Example 119]
8.2	1	6.6	COc1cc(-c2c3c(C#N)cc(-c4cnn(C(F)F)c4)cc3nn2C)cc2c1C(=O)NC[C@@H]2C (single isomer, unassigned) [Example 128]
19.5	7.8	7	COCCn1cc(-c2cc(C#N)c3c(-c4cc(OC(F)F)c5c(c4)[C@@H](C)CNC5=O)n(C)nc3c2)cn1 (single isomer, unassigned) [Example 172]
5.3	1	0.6	CCn1cc(-c2cc(C#N)c3c(-c4cc(OC)c(C(=O)N[C@@H]5CC5(F)F)c(OC(F)F)c4)n(C)nc3c2)cn1 [Example 118, 4-[4-cyano-6-(1-ethylpyrazol-4-yl)-2-methylindazol-3-yl]-N-[(1R)-2,2-difluorocyclopropyl]-2-(difluoromethoxy)-6-methoxybenzamide]
16.5	8.7	10.1	COc1cc(-c2c3c(C#N)cc(-c4cnn(CC5CCO5)c4)cc3nn2C)cc(OC(F)F)c1C(=O)NCC1(F)CC1 (stereo not drawn) [Example 80, 4-[4-cyano-2-methyl-6-[1-(oxetan-2-ylmethyl)pyrazol-4-yl]indazol-3-yl]-2-(difluoromethoxy)-N-[(1-fluorocyclopropyl)methyl]-6-methoxybenzamide]
17.6	5.3	11.7	COc1cc(-c2c3c(C#N)cc(-c4cnn(CC5(F)COC5)c4)cc3nn2C)cc(OC(F)F)c1C(=O)NCC1(F)CC1 [Example 76, 4-[4-cyano-6-[1-[(3-fluorooxetan-3-yl)methyl]pyrazol-4-yl]-2-methylindazol-3-yl]-2-(difluoromethoxy)-N-[(1-fluorocyclopropyl)methyl]-6-methoxybenzamide]
16.2	18.2	9.4	COc1cc(-c2c3c(C#N)cc(-c4cnn(C)c4)cc3nn2C)cc(OC(F)F)c1C(=O)N1CC(C#N)(C(F)F)C1 [Example 39, 3-[4-[3-cyano-3-(difluoromethyl)azetidin-1-carbonyl]-3-(difluoromethoxy)-5-methoxyphenyl]-2-methyl-6-(1-methylpyrazol-4-yl)indazole-4-carbonitrile]
7.6	4.5	2.3	COc1cc(-c2c3c(C(F)F)cc(-c4cnn(C)c4)cc3nn2C)cc(OC(F)F)c1C(=O)N[C@@H]1C[C@@H]1F [Example 3, 2-(difluoromethoxy)-4-[4-(difluoromethyl)-2-methyl-6-(1-methylpyrazol-4-yl)indazol-3-yl]-N-[(1R,2S)-2-fluorocyclopropyl]-6-methoxybenzamide]
14.1	3.8	6.6	COc1cc(-c2c3c(C#N)cc(-c4cnn(CC5COC5)c4)cc3nn2C)cc(OC(F)F)c1C(=O)NCC1(F)CC1 [Example 59, 4-[4-cyano-2-methyl-6-[1-(oxetan-3-ylmethyl)pyrazol-4-yl]indazol-3-yl]-2-(difluoromethoxy)-N-[(1-fluorocyclopropyl)methyl]-6-methoxybenzamide]
7.1	2	19.7	COc1cc(-c2c3c(OC(F)F)cc(-c4cnn(C)c4)cc3nn2C)cc2c1C(=O)NC[C@@H]2C (single isomer, unassigned) [Example 164]
6.3	3.2	13.4	COc1cc(-c2c3c(C#N)cc(-c4cn[nH]c4)cc3nn2C)cc2c1C(=O)NCC2(C)C [Example 147, 3-(8-methoxy-4,4-dimethyl-1-oxo-2,3-dihydroisoquinolin-6-yl)-2-methyl-6-(1H-pyrazol-4-yl)indazol-4-carbonitrile]
7.5	1	3	CC1CNC(=O)c2c(OC(F)F)cc(-c3c4c(C#N)cc(-c5cnn(C)c5)cc4nn3C)cc21 (stereo not drawn) [Example 160, 3-[8-(difluoromethoxy)-4-methyl-1-oxo-3,4-dihydro-2H-isoquinolin-6-yl]-2-methyl-6-(1-methylpyrazol-4-yl)indazol-4-carbonitrile]
17.8	10.4	7.9	COc1cc(-c2c3c(C#N)cc(-c4cnn(CCC(C)(C)O)c4)cc3nn2C)cc(OC(F)F)c1C(=O)NCC1(F)CC1 [Example 90]
8.5	1.7	4.1	COc1cc(-c2c3c(C#N)cc(-c4cnn(C(C)C)c4)cc3nn2C)cc2c1C(=O)NC[C@@H]2C (single isomer, unassigned) [Example 167]
15.3	7.4	6.1	COc1cc(-c2c3c(C#N)cc(-c4cnn(C[C@@H](O)c5ccccc5)c4)cc3nn2C)cc(OC(F)F)c1C(=O)NCC1(F)CC1 [Example 97, 4-[4-cyano-6-[1-[(2S)-2-hydroxy-2-phenylethyl]pyrazol-4-yl]-2-methylindazol-3-yl]-2-(difluoromethoxy)-N-[(1-fluorocyclopropyl)methyl]-6-methoxybenzamide]
4.4	5.8	13.7	COc1cc(-c2c3c(C#N)cc(-c4cnn(C(C)(C)C)c4)cc3nn2C)cc(OC(F)F)c1C(=O)N[C@@H]1C[C@@H]1F [Example 20, 4-[6-(1-tert-butylpyrazol-4-yl)-4-cyano-2-methylindazol-3-yl]-2-(difluoromethoxy)-N-[(1R,2S)-2-fluorocyclopropyl]-6-methoxybenzamide]
11.7	2.2	3.6	COc1cc(-c2c3c(C(F)F)cc(-c4cnn([C@H]5CCOC5)c4)cc3nn2C)cc(OC(F)F)c1C(N)=O [Example 158, 2-(difluoromethoxy)-4-[4-(difluoromethyl)-2-methyl-6-[1-[(3S)-oxolan-3-yl]pyrazol-4-yl]indazol-3-yl]-6-methoxybenzamide]
